Assay results: ChEMBL document CHEMBL3243958, “Bufotenine esters” (J Med Chem, 1979)

Legend:
[1] = target: Serotonin 1 (5-HT1) receptor (Rattus norvegicus, UniProt P28564+P30940+P19327+P28565); assay: Antagonist activity at 5-HT1 receptor in Sprague-Dawley rat assessed as inhibition of 5-HT-induced stomach fundus contraction
[2] = Chloroform to aqueous buffer partition coefficient, log P of the compound at pH 7.4 by shake flask method; assay type: physicochemical
[3] = Chemical stability of the compound assessed as ester hydrolysis in Tyrode's solution at 37 degC for 10 to 15 mins; assay type: physicochemical; conditions: read-out: Drug metabolism
[4] = Stability in Sprague-Dawley rat stomach fundus strip assessed as hydrolysis; assay type: ADME, tissue-based; conditions: read-out: Drug metabolism

`CN(C)CCc1c[nH]c2ccccc12` showed a pA2 [1] of 6 and a logP [2] of 2.61.

With `CC(=O)Oc1ccc2[nH]cc(CCN(C)C)c2c1.O=C(O)C(=O)O` the pA2 [1] was 7.71, the logP [2] was 2.31 and the degraded [3] was 5%. The metabolised [4] was < 5%.

`CCC(=O)Oc1ccc2[nH]cc(CCN(C)C)c2c1.O=C(O)C(=O)O` showed a logP [2] of 5.6, a degraded [3] of 5% and a metabolised [4] of 15%.

With `CCCC(=O)Oc1ccc2[nH]cc(CCN(C)C)c2c1.O=C(O)C(=O)O` the pA2 [1] was 7.32, the degraded [3] was 5% and the metabolised [4] was 15%.

In the case of `CC(C)C(=O)Oc1ccc2[nH]cc(CCN(C)C)c2c1`, the degraded [3] is reported as 1% and the metabolised [4] is reported as 15%.

Work on `CN(C)CCc1c[nH]c2ccc(OC(=O)C(C)(C)C)cc12` yielded a degraded [3] of 1% and a metabolised [4] of 15%.

In the case of `CN(C)CCc1c[nH]c2ccc(O)cc12` [BUFOTENINE], the pA2 [1] is reported as 7.41 and the logP [2] is reported as 0.06.

Compound `COc1ccc2[nH]cc(CCN(C)C)c2c1` [MEBUFOTENIN] has a logP [2] of 3.3.
